Measurements: ChEMBL document CHEMBL6153094, “Rationally designed highly amphipathic antimicrobial peptides demonstrating superior bacterial selectivity relative to the corresponding α-helix peptide” (Eur J Med Chem, 2025)
The source made the active and inactive calls. No cut-off for these calls is given here.

Columns and labels:
[1] = tested on: Pseudomonas aeruginosa; assay: Bactericidal activity against Pseudomonas aeruginosa ATCC 27853 assessed as bacterial killing at 1 to 4 times of MIC by time-kill kinetics assay; format: functional, organism-based; settings: time <= 360.0 min
[2] = tested on: Pseudomonas aeruginosa; assay: Bactericidal activity against Pseudomonas aeruginosa ATCC 27853 assessed as bacterial eradication at 4 times of MIC measured within 30 mins by time-kill kinetics assay; format: functional, organism-based
[3] = tested on: Staphylococcus aureus; assay: Antibacterial activity against methicillin-resistant Staphylococcus aureus ATCC 33591 infected in male Balb/c mouse model of full thickness skin wound assessed as reduction in bacterial load in skin at 1 mg/ml pre-infected with bacteria for 1 hrs followed by compound administration at 1,12 and 36 hrs post infection and measured 60 hrs post infection by agar plate method; format: functional, organism-based; settings: time 59.0 hrs
[4] = tested on: Pseudomonas aeruginosa; assay: Antimicrobial activity against multi-drug resistant Pseudomonas aeruginosa clinical isolate 124 assessed as concentration required to eliminate 90% bacteria incubated for 18 hrs by broth-microdilution method; format: functional
[5] = tested on: Escherichia coli; assay: Antimicrobial activity against Escherichia coli ATCC 25922 assessed as inhibition of visible bacterial growth incubated for 18 hrs by broth microdilution method; format: functional
[6] = tested on: Pseudomonas aeruginosa; assay: Antibiofilm activity in Pseudomonas aeruginosa ATCC 27853 assessed as inhibition of biofilm formation at 1/2 times of MIC incubated for 24 hrs by crystal violet staining based analysis; format: functional, organism-based
[7] = tested on: Staphylococcus aureus; assay: Bactericidal activity against Staphylococcus aureus ATCC 25923 assessed as bacterial eradication at 1 times of MIC measured within 90 mins by time-kill kinetics assay; format: functional, organism-based
[8] = tested on: Cell membrane; assay: Disruption of membrane integrity in Staphylococcus aureus ATCC 25923 at 2 times of MIC incubated for 30 to 120 mins by SEM analysis; format: subcellular; settings: time 30-120 min
[9] = tested on: Staphylococcus aureus; assay: Bactericidal activity against Staphylococcus aureus ATCC 25923 at 2 times of MIC incubated for 18 hrs in presence of 20 microg/ml of chymotrypsin by absorbance based assay; format: functional, organism-based
[10] = tested on: Staphylococcus aureus; assay: Induction of morphological changes in Staphylococcus aureus ATCC 25923 assessed as membrane disruption at 2 times of MIC incubated for 30 to 120 mins by SEM analysis; format: functional, organism-based; settings: time 30-120 min
[11] = tested on: Staphylococcus aureus; assay: Resistance fold, ratio of MIC for Staphylococcus aureus ATCC 25923 measured after 20 passages to MIC for Staphylococcus aureus ATCC 25923 measured immediately; format: functional
[12] = Toxicity in male Balb/c mouse assessed as lethal dose administered intraperitoneally for 7 days; settings: in vivo, route ip, time 7 day
[13] = tested on: Staphylococcus aureus; assay: Antimicrobial activity against methicillin-drug resistant Staphylococcus aureus clinical isolate 48 assessed as concentration required to eliminate 90% bacteria incubated for 18 hrs by broth-microdilution method; format: functional
[14] = tested on: Staphylococcus aureus; assay: Bactericidal activity against Staphylococcus aureus ATCC 25923 at 2 times of MIC incubated for 18 hrs in presence of 20 microg/ml of trypsin by absorbance based assay; format: functional, organism-based
[15] = tested on: Klebsiella pneumoniae; assay: Antibacterial activity against Klebsiella pneumoniae ATCC 700603 infected in male Balb/c mouse model of pneumonia assessed as decrease in decrease in IL-6 level in lung at 2.5 to 10 mg/kg, ip administered at 4 and 12 hrs post-infected and measured after 24 hrs by ELISA; format: functional, organism-based; settings: dose 2.5-10 mg/kg, time 20.0 hrs
[16] = tested on: Klebsiella pneumoniae; assay: Antibacterial activity against Klebsiella pneumoniae ATCC 700603 infected in male Balb/c mouse model of pneumonia assessed as decrease in bacterial load in lung at 2.5 to 10 mg/kg, ip administered at 4 and 12 hrs post-infected and measured after 24 hrs by agar plate method; format: functional, organism-based; settings: dose 2.5-10 mg/kg, time 20.0 hrs
[17] = tested on: Enterococcus faecalis; assay: Antimicrobial activity against Enterococcus faecalis ATCC 29212 assessed as inhibition of visible bacterial growth incubated for 18 hrs by broth-dilution method; format: functional
[18] = tested on: Pseudomonas aeruginosa; assay: Antibacterial activity against Pseudomonas aeruginosa ATCC 27853 assessed as fold change in MIC incubated for 18 hrs in presence of KCl by Mueller-Hinton broth based assay; format: functional
[19] = tested on: Staphylococcus epidermidis; assay: Antimicrobial activity against Staphylococcus epidermidis ATCC 12228 assessed as inhibition of visible bacterial growth incubated for 18 hrs by broth-dilution method; format: functional
[20] = tested on: Staphylococcus aureus; assay: Antimicrobial activity against methicillin-drug resistant Staphylococcus aureus clinical isolate 74 assessed as concentration required to eliminate 90% bacteria incubated for 18 hrs by broth-microdilution method; format: functional
[21] = tested on: Pseudomonas aeruginosa; assay: Antimicrobial activity against gentamicin-resistant Pseudomonas aeruginosa ATCC 27853 assessed as inhibition of visible bacterial growth incubated for 18 hrs by broth microdilution method; format: functional
[22] = tested on: Staphylococcus aureus; assay: Bactericidal activity against Staphylococcus aureus ATCC 25923 assessed as bacterial eradication at 4 times of MIC measured within 30 mins by time-kill kinetics assay; format: functional, organism-based
[23] = tested on: Pseudomonas aeruginosa; assay: Induction of morphological changes in Pseudomonas aeruginosa ATCC 27853 assessed as blister formation at 2 times of MIC incubated for 30 to 120 mins by SEM analysis; format: functional, organism-based; settings: time 30-120 min
[24] = tested on: Pseudomonas aeruginosa; assay: Induction of morphological changes in Pseudomonas aeruginosa ATCC 27853 assessed as cell adhesion at 2 times of MIC incubated for 30 to 120 mins by SEM analysis; format: functional, organism-based; settings: time 30-120 min
[25] = tested on: Pseudomonas aeruginosa; assay: Induction of morphological changes in Pseudomonas aeruginosa ATCC 27853 assessed as cellular fragmentation at 2 times of MIC incubated for 30 to 120 mins by SEM analysis; format: functional, organism-based; settings: time 30-120 min
[26] = tested on: Staphylococcus aureus; assay: Antibacterial activity against Staphylococcus aureus ATCC 25923 assessed as fold change in MIC incubated for 18 hrs in presence of NaCl by Mueller-Hinton broth based assay; format: functional
[27] = tested on: Pseudomonas aeruginosa; assay: Resistance fold, ratio of MIC for Pseudomonas aeruginosa ATCC 27853 measured after 20 passages in presence of gentamicin to MIC for Pseudomonas aeruginosa ATCC 27853 measured immediately in presence of gentamicin; format: functional
[28] = tested on: Staphylococcus aureus; assay: Antimicrobial activity against methicillin-drug resistant Staphylococcus aureus ATCC 33591 assessed as concentration required to eliminate 90% bacteria incubated for 18 hrs by broth-microdilution method; format: functional
[29] = tested on: Staphylococcus aureus; assay: Antibacterial activity against Staphylococcus aureus ATCC 25923 assessed as fold change in MIC incubated for 18 hrs in presence of KCl by Mueller-Hinton broth based assay; format: functional
[30] = tested on: Staphylococcus aureus; assay: Antibacterial activity against Staphylococcus aureus ATCC 25923 assessed as fold change in MIC incubated for 18 hrs in presence of 5% serum by broth microdilution method; format: functional
[31] = tested on: Staphylococcus aureus; assay: Antibiofilm activity in Staphylococcus aureus ATCC 25923 assessed as inhibition of biofilm formation at 4 times of MIC incubated for 24 hrs by crystal violet staining based analysis relative to control; format: functional
[32] = tested on: Staphylococcus aureus; assay: Antimicrobial activity against methicillin-drug resistant Staphylococcus aureus clinical isolate 936 assessed as concentration required to eliminate 90% bacteria incubated for 18 hrs by broth-microdilution method; format: functional
[33] = tested on: Pseudomonas aeruginosa; assay: Antibacterial activity against Pseudomonas aeruginosa ATCC 27853 incubated for 18 hrs in presence of 10% serum by broth microdilution method; format: functional, organism-based
[34] = tested on: Pseudomonas aeruginosa; assay: Induction of morphological changes in Pseudomonas aeruginosa ATCC 27853 assessed as membrane disruption at 2 times of MIC incubated for 30 to 120 mins by SEM analysis; format: functional, organism-based; settings: time 30-120 min

For H-RRWFRRWRRWFR-NH2, the Activity [1] was “Time-dependent-effect”, the Activity [2] was “Active” and the Activity [3] was “Active”. For the same substance, the EC90 [4] was 780 nM, the MIC [5] was 4 µM and the Activity [6] was “inactive”. For the same substance, the Activity [7] was “Active”, the Activity [8] was “Active” and the Activity [9] was “inactive”. For the same substance, the Activity [10] was “Active”, the “fold change (FC)” value [11] was “<=2” and the LD50 at 168 h [12] was 89.9 mg/kg. For the same substance, the EC90 [13] was 2780 nM, the Activity [14] was “inactive” and the Activity [15] was “inactive”. The Activity [16] was “Active”, the MIC [17] was 8 µM and the “fold change (FC)” value [18] was 2. For the same substance, the MIC [19] was 1 µM, the EC90 [20] was 2430 nM and the MIC [21] was 2 µM. For the same substance, the Activity [22] was “Active”, the Activity [23] was “Active” and the Activity [24] was “Active”. The Activity [25] was “Active”, the “fold change (FC)” value [26] was 2 and the “fold change (FC)” value [27] was “<=2”. For the same substance, the EC90 [28] was 2260 nM, the “fold change (FC)” value [29] was 2 and the “fold change (FC)” value [30] was 128. The “inhibition (INH)” value [31] was ~75%, the EC90 [32] was 5220 nM and the Activity [33] was “inactive”. For the same substance, the Activity [34] was “Active”.
